Measurements published in patent US9273028B2, “Heterocyclic tyrosine kinase inhibitors” (Biogen MA Inc., priority 2010, dated 2016).

Target: T1, BTK (Homo sapiens, UniProt Q06187)
T1 construct: purchased Upstate 14-552
Assay: In vitro BTK kinase assay (BTK-POLYGAT-LS)
Format: biochemical
Conditions: IC50 (10 uM ATP)
Method: In vitro BTK Kinase Assay
The purpose of the BTK in vitro assay is to determine compound potency against BTK through the measurement of IC50. […] For a typical assay, a 24 μL aliquot of a ATP/peptide master mix (final concentration; ATP 10 μM, polyGAT 100 nM) in kinase buffer (10 mM Tris-HCl pH 7.5, 10 mM MgCl2, 200 μM Na3PO4, 5 mM DTT, 0.01% Triton X-100, and 0.2 mg/ml casein) is added to each well. […] The assay is incubated for 30 minutes before being stopped with 28 μL of a 50 mM EDTA solution. […] The plate is covered and incubated for 45 minutes at room temperature.

T1 sequence (Q06187 whole entry): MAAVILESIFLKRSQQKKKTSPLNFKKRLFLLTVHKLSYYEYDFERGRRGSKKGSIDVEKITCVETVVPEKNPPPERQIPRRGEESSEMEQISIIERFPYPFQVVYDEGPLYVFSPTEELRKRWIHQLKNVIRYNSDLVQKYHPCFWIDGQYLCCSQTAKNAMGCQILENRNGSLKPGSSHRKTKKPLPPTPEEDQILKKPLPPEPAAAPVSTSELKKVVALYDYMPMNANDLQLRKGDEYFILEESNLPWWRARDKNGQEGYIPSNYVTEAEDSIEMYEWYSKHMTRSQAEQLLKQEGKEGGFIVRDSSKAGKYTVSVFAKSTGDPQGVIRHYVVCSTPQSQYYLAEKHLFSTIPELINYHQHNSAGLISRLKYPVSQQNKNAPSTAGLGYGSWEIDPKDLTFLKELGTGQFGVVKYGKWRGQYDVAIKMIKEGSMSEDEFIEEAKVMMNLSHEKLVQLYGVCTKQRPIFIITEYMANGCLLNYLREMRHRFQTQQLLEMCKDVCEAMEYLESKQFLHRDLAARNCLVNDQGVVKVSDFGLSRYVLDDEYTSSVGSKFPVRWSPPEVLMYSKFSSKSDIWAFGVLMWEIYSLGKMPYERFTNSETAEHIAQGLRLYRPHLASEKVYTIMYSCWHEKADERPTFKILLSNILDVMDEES

SMILES | IC50 [µM]
CN1CCN(C(=O)c2ccc(-c3cnc4[nH]ccc4c3N[C@H]3CCCN(C(=O)CNc4cc(Cl)cc(Cl)c4)C3)cc2)CC1 [Compound 1] | < 0.1
O=C(CNc1cc(Cl)cc(Cl)c1)N1CCC[C@@H](Nc2c(-c3ccc(C(=O)N4CCC(O)CC4)cc3)cnc3[nH]ccc23)C1 [Compound 2] | < 0.1
O=C(CNc1cc(Cl)cc(Cl)c1)N1CCC[C@@H](Nc2c(-c3ccc(C(=O)N4CCOCC4)cc3)cnc3[nH]ccc23)C1 [Compound 3] | < 0.1
CCC1C(Nc2ncnc3[nH]ncc23)CCCN1C(=O)CNc1cc(F)cc(Cl)c1 (stereo not shown) [Compound 4] | < 0.1
CCC1C(Nc2ncnc(N)c2F)CCCN1C(=O)CNc1cc(F)cc(Cl)c1 (stereo not shown) [Compound 5] | 1 to 10
O=C(CNc1cc(Cl)cc(Cl)c1)N1CCC[C@@H](Nc2ncnc3[nH]cc(F)c23)C1 [Compound 6] | 0.1 to 0.999
CCC1C(Nc2ncnc3[nH]ccc23)CCCN1C(=O)CNc1cc(F)cc(Cl)c1 (stereo not shown) [Compound 7] | 0.1 to 0.999
Nc1ncnc(N[C@@H]2CCCN(C(=O)CNc3cc(Cl)cc(Cl)c3)C2)c1Cl [Compound 8] | 1 to 10
CN(c1ncnc2[nH]ccc12)C1CCCN(C(=O)CNc2cc(F)cc(Cl)c2)C1C(F)(F)F (stereo not shown) [Compound 9] | < 0.1
O=C(CNc1cc(Cl)cc(Cl)c1)N1CCC[C@@H](Nc2ncnc3[nH]cnc23)C1 [Compound 10] | 1 to 10
O=C(CNc1cc(Cl)cc(Cl)c1)N1CCC[C@H](Nc2ncnc3[nH]ccc23)[C@@H]1C(F)(F)F [Compound 11] | 0.1 to 0.999
O=C(CNc1cc(Cl)cc(Cl)c1)N1CCC[C@@H](Nc2ncnc3[nH]ccc23)[C@H]1C(F)(F)F [Compound 12] | < 0.1
CN(c1ncnc2[nH]ccc12)C1CCCN(C(=O)CNc2cc(Cl)cc(C(F)(F)F)c2)C1C(F)(F)F (stereo not shown) [Compound 13] | < 0.1
CN(c1ncnc2[nH]ccc12)C1CCCN(C(=O)CNc2cc(Cl)cc(Cl)c2)C1C(F)(F)F (stereo not shown) [Compound 14] | < 0.1
CN(c1ncnc2[nH]ccc12)C1CCCN(C(=O)CNc2ccccc2)C1C(F)(F)F (stereo not shown) [Compound 15] | < 0.1
CN(c1ncnc2[nH]ccc12)C1CCCN(C(=O)CNc2cccc(Cl)c2)C1C(F)(F)F (stereo not shown) [Compound 16] | < 0.1
O=C(CNc1cc(Cl)cc(C(F)(F)F)c1)N1CCCC(Nc2ncnc3[nH]ccc23)C1C(F)(F)F (stereo not shown) [Compound 17] | < 0.1
O=C(CNc1ccccc1)N1CCCC(Nc2ncnc3[nH]ccc23)C1C(F)(F)F (stereo not shown) [Compound 18] | 0.1 to 0.999
O=C(CNc1cc(Cl)cc(Cl)c1)N1CCCC(Nc2ncnc3[nH]ccc23)C1C(F)(F)F (stereo not shown) [Compound 19] | < 0.1
O=C(CNc1cccc(Cl)c1)N1CCCC(Nc2ncnc3[nH]ccc23)C1C(F)(F)F (stereo not shown) [Compound 20] | < 0.1
C[C@H]1[C@@H](Nc2ncnc3[nH]ncc23)CCCN1C(=O)CNc1ccccc1S(=O)(=O)N1CCCCC1 [Compound 21] | 1 to 10
C[C@@H]1[C@H](Nc2ncnc3[nH]ncc23)CCCN1C(=O)CNc1ccccc1S(=O)(=O)N1CCCCC1 [Compound 22] | < 0.1
C[C@@H]1[C@@H](Nc2ncnc3[nH]ncc23)CCCN1C(=O)CNc1cc(F)cc(Cl)c1 [Compound 24] | 1 to 10
C[C@H]1[C@H](Nc2ncnc3[nH]ncc23)CCCN1C(=O)CNc1cc(F)cc(Cl)c1 [Compound 26] | 0.1 to 0.999
C[C@H]1[C@@H](Nc2ncnc3[nH]ncc23)CCCN1C(=O)CNc1cc(F)cc(Cl)c1 [Compound 27] | 0.1 to 0.999

SMILES | IC50 [µM]
C[C@@H]1[C@@H](Nc2ncnc3[nH]ncc23)CCCN1C(=O)CNc1cc(Cl)cc(Cl)c1 [Compound 28] | 0.1 to 0.999
C[C@H]1[C@H](Nc2ncnc3[nH]ncc23)CCCN1C(=O)CNc1cc(Cl)cc(Cl)c1 [Compound 30] | 0.1 to 0.999
C[C@H]1[C@@H](Nc2ncnc3[nH]ncc23)CCCN1C(=O)CNc1cc(Cl)cc(Cl)c1 [Compound 31] | < 0.1
O=C(CNc1cc(Cl)cc(Cl)c1)N1CCCC(Nc2ncnc3[nH]ccc23)C1C1CCCC1 (stereo not shown) [Compound 33] | < 0.1
CC(C)C1C(Nc2ncnc3[nH]ccc23)CCCN1C(=O)CNc1cc(Cl)cc(Cl)c1 (stereo not shown) [Compound 34] | < 0.1
O=C(CNc1cc(Cl)cc(Cl)c1)N1CCC[C@@H](N(CCO)c2ncnc3[nH]ccc23)C1 [Compound 35] | < 0.1
O=C(O)CN(c1ncnc2[nH]ccc12)[C@@H]1CCCN(C(=O)CNc2cc(Cl)cc(Cl)c2)C1 [Compound 36] | 1 to 10
CN(C)C(=O)CN(c1ncnc2[nH]ccc12)[C@@H]1CCCN(C(=O)CNc2cc(Cl)cc(Cl)c2)C1 [Compound 40] | 0.1 to 0.999
CCCCC1C(Nc2ncnc3[nH]ccc23)CCCN1C(=O)CNc1cc(Cl)cc(Cl)c1 (stereo not shown) [Compound 41] | 0.1 to 0.999
CCC1CC2CCN(C(=O)CNc3cc(Cl)cc(Cl)c3)CC2N1c1ncnc2[nH]ccc12 (stereo not shown) [Compound 42] | < 0.1
O=C(CNc1cc(Cl)cc(Cl)c1)N1CCCC(N(CCO)c2ncnc3[nH]ccc23)C1 (stereo not shown) [Compound 43] | < 0.1
C[C@@H]1C[C@@H]2CCN(C(=O)CNc3cc(Cl)cc(Cl)c3)C[C@@H]2N1c1ncnc2[nH]ccc12 [Compound 46] | < 0.1
C[C@@H]1C[C@H]2CCN(C(=O)CNc3cc(Cl)cc(Cl)c3)C[C@H]2N1c1ncnc2[nH]ccc12 [Compound 47] | < 0.1
CC1C(N(C)c2ncnc(N)c2F)CCCN1C(=O)CNc1cc(Cl)cc(Cl)c1 (stereo not shown) [Compound 49] | < 0.1
O=C(CNc1cc(Cl)cc(Cl)c1)N1CCOCC(Nc2ncnc3[nH]cnc23)C1 (stereo not shown) [Compound 50] | 0.1 to 0.999
CC1C(Nc2ncnc3[nH]ccc23)CCCN1C(=O)[C@H](Nc1cc(Cl)cc(Cl)c1)C1CC1 (stereo partly shown) [Compound 51] | 0.1 to 0.999
CC1C(Nc2ncnc3[nH]ncc23)CCCN1C(=O)[C@H](Nc1cc(Cl)cc(Cl)c1)C1CC1 (stereo partly shown) [Compound 52] | < 0.1
O=C1C(Nc2cc(F)cc(Cl)c2)CC2CCC(Nc3ncnc4[nH]ccc34)CN12 (stereo not shown) [Compound 53] | 1 to 10
O=C(CNc1cc(Cl)cc(Cl)c1)N1CCCC(N(CCN2CCCC2)c2ncnc3[nH]ccc23)C1 (stereo not shown) [Compound 54] | 1 to 10
CC1C(N(C)c2ncnc3[nH]ncc23)CCCN1C(=O)CNc1cc(Cl)cc(Cl)c1 (stereo not shown) [Compound 55] | < 0.1
C[C@@H](Nc1cc(Cl)cc(Cl)c1)C(=O)N1CCC2CCN(c3ncnc4[nH]ccc34)C2C1 (stereo partly shown) [Compound 56] | < 0.1
CC1C2C(CCN1C(=O)CNc1cc(Cl)cc(Cl)c1)CCN2c1ncnc2[nH]ccc12 (stereo not shown) [Compound 57] | < 0.1
CC1C(Nc2ncnc3[nH]ncc23)CCCN1C(=O)CNc1cc(Cl)cc(C(F)(F)F)c1 (stereo not shown) [Compound 58] | < 0.1
CC1C(Nc2ncnc3[nH]ncc23)CCCN1C(=O)[C@@H](C)Nc1cc(Cl)cc(Cl)c1 (stereo partly shown) [Compound 60] | < 0.1
CCC[C@@H](Nc1cc(Cl)cc(Cl)c1)C(=O)N1CCCC(Nc2ncnc3[nH]ncc23)C1C (stereo partly shown) [Compound 61] | < 0.1

SMILES | IC50 [µM]
CC1C(Nc2ncnc(N)c2F)CCCN1C(=O)CNc1cc(Cl)cc(Cl)c1 (stereo not shown) [Compound 62] | < 0.1
CC1C(Nc2ncnc3[nH]ncc23)CCCN1C(=O)CNc1ccccc1S(=O)(=O)c1ccccc1 (stereo not shown) [Compound 63] | < 0.1
CCC[C@@H](Nc1cc(Cl)cc(Cl)c1)C(=O)N1CCCC(Nc2ncnc3[nH]ccc23)C1C (stereo partly shown) [Compound 64] | < 0.1
CC[C@@H](Nc1cc(Cl)cc(Cl)c1)C(=O)N1CCCC(Nc2ncnc3[nH]ncc23)C1C (stereo partly shown) [Compound 65] | < 0.1
CC1C(Nc2ncnc3[nH]ccc23)CCCN1C(=O)CNc1ccccc1S(=O)(=O)N1CCCCC1 (stereo not shown) [Compound 66] | < 0.1
CC1C(Nc2ncnc3[nH]ncc23)CCCN1C(=O)CNc1cc(F)cc(Cl)c1 (stereo not shown) [Compound 68] | < 0.1
CC1C(Nc2ncnc3[nH]ncc23)CCCN1C(=O)CNc1ccccc1S(=O)(=O)C1CCCC1 (stereo not shown) [Compound 69] | < 0.1
CC1C(Nc2ncnc3[nH]ncc23)CCCN1C(=O)CNc1ccccc1S(=O)(=O)N1CCCC1 (stereo not shown) [Compound 70] | < 0.1
CC1C(Nc2ncnc3[nH]ccc23)CCCN1C(=O)CNc1cc(F)cc(Cl)c1 (stereo not shown) [Compound 71] | < 0.1
CC[C@@H](Nc1cc(Cl)cc(Cl)c1)C(=O)N1CCCC(Nc2ncnc3[nH]ccc23)C1C (stereo partly shown) [Compound 72] | < 0.1
CC1C(Nc2ncnc3[nH]ccc23)CCCN1C(=O)CNc1ccccc1S(=O)(=O)C1CCCC1 (stereo not shown) [Compound 73] | < 0.1
CC1CC2CCN(C(=O)CNc3cc(Cl)cc(Cl)c3)CC2N1c1ncnc2[nH]ccc12 (stereo not shown) [Compound 74] | < 0.1
CC1C(Nc2ncnc3[nH]ccc23)CCCN1C(=O)CNc1ccccc1S(=O)(=O)c1ccccc1 (stereo not shown) [Compound 75] | < 0.1
O=C(CNc1ccc(F)c(Cl)c1)N1CCC2CCN(c3ncnc4[nH]ccc34)C2C1 (stereo not shown) [Compound 77] | < 0.1
CC1C(Nc2ncnc3[nH]ccc23)CCCN1C(=O)CNc1ccccc1S(=O)(=O)N1CCCC1 (stereo not shown) [Compound 79] | < 0.1
CC1C(Nc2ncnc3[nH]ccc23)CCCN1C(=O)CNc1cc(Cl)cc(C(F)(F)F)c1 (stereo not shown) [Compound 80] | < 0.1
CC1C(Nc2ncnc3[nH]ccc23)CCCN1C(=O)[C@@H](C)Nc1cc(Cl)cc(Cl)c1 (stereo partly shown) [Compound 81] | < 0.1
NC(=O)c1c(N)ncnc1NC1CCCN(C(=O)CNc2cc(Cl)cc(Cl)c2)C1 (stereo not shown) [Compound 82] | > 10
CNc1cc(NC2CCCN(C(=O)CNc3cc(Cl)cc(Cl)c3)C2)ncn1 (stereo not shown) [Compound 83] | 0.1 to 0.999
CC(C)N(c1ncnc2[nH]ccc12)C1CCCN(C(=O)CNc2cc(Cl)cc(Cl)c2)C1 (stereo not shown) [Compound 84] | 0.1 to 0.999
CC(=O)Nc1cc(NC2CCCN(C(=O)CNc3cc(Cl)cc(Cl)c3)C2)ncn1 (stereo not shown) [Compound 85] | 1 to 10
O=C(CNc1cc(Cl)cc(Cl)c1)N1CCCC(N(CCN2CCOCC2)c2ncnc3[nH]ccc23)C1 (stereo not shown) [Compound 86] | 0.1 to 0.999
CC1CC(N(C)c2ncnc3[nH]ncc23)CN(C(=O)CNc2cc(Cl)cc(Cl)c2)C1 (stereo not shown) [Compound 87] | < 0.1
